pIC50: −log10 of the molar value. Read-outs that look alike come from different tables or passages of the source.
Key:
[1] = biological target: FLAP (human ALOX5AP expressed in COS-7 cell membranes) (Homo sapiens (Human), UniProt P20292); assay: FLAP Binding Assay (Test A), competition binding with 3H-MK591 as tracer; conditions: competition with 3H-MK591 (2 nM), membranes from COS-7 cells expressing human ALOX5AP, 60 min at rt
Description: FLAP Binding Assay (Test A) Compounds were tested in a competition binding assay using ^3H-MK591 as tracer. […] Med. Chem. […] A 100,000×g pellet from COS-7 cells stably transfected with a plasmid expressing human ALOX5AP was the source of FLAP. […] Following filtration, filter plates were dried 12 h at RT (or 50° C. for 1 hour). 50 μL scintillant was then added, the filterplates were sealed and radioactivity was measured in a microbeta counter. Specific binding was defined as total binding minus non-specific binding. Total binding was defined as ^3H-MK591 bound to membranes in the absence of competitor, non-specific binding was defined as ^3H-MK591 in the presence of 0.1 mM MK-591. IC50 values were determined by plotting % inhibition versus log compound concentration and using a one site dose response model.

[2] = test system: LTB4 production in fresh human whole blood; assay: FLAP Whole Blood Assay (Test B), inhibition of LTB4 production; format: cell-based; conditions: then calcium ionophore A23187, LTB4 by EIA
Description: FLAP Whole Blood Assay (Test B)
Compounds were tested for the inhibition of LTB4 production in fresh human whole blood obtained by venapuncture using heparin to prevent clotting. 1.5 μL compounds or DMSO carrier were dispensed into the wells of a 96-well deep-well plate in 3-fold dilution series. 500 μL hepamised whole blood was then added followed by incubation at 37° C. for 30 min (method A) or 4 h (method B). 100 μL blood was subsequently transferred in triplicate to pre-dispensed 0.5 μL 2 mM calcium ionophore (calcimycin; A23187) in a second 96-well plate. Following incubation at 37° C. for 20 min, the assays were stopped by adding 10 μL of stop solution (100 mM EGTA, pH 7.4) and the plate was transferred to ice. The plate was centrifuged at 3000 rpm at 4° C. for 10 min and […] was transferred to a fresh 96 well plate containing 90 μL pre-dispensed EIA assay buffer (0.1 M phosphate buffer+0.1% BSA). LTB4 was then measured using reagents from a commercial EIA (Cayman Chemicals). LTB4 production was defined as the LTB4 level in the presence of a given concentration of test compound minus the LTB4 level in the presence of 50 nM 5-[[4-[(2S,4R)-4-hydroxy-2-methyl-tetrahydropyran-4-yl]-2-thienyl]sulfanyl]-1-methyl-indolin-2-one. (Preparation of 5-[[4-[(2S,4R)-4-hydroxy-2-methyl-tetrahydropyran-4-yl]-2-thienyl]sulfanyl]-1-methyl-indolin-2-one was described in Org. Process Res. Dev., 2005, 9, 555-569 or EP623614 B1). Inhibition of LTB4 production was defined as the LTB4 level in the presence of a given concentration of test compound expressed as a % of the LTB4 level in the presence of DMSO. IC50 values were determined by plotting % inhibition versus log compound concentration and using a one site dose response model.

[3] = method B: compound incubated with human whole blood at 37° C. for 4 h, read-out: IC50 nM (method B)

Sequence of FLAP (human ALOX5AP expressed in COS-7 cell membranes) (P20292 whole entry): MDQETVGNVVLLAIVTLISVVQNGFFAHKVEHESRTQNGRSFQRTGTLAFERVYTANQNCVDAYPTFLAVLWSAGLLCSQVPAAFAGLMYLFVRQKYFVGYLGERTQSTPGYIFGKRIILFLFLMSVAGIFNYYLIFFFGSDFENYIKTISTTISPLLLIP

| pIC50 [1] | IC50 [2, 3] | IC50 ([2]; 0.5 h, method A: compound incubated with human whole blood at 37° C. for 30 min, read-out: IC50 nM (method A)) | Structure (SMILES) |
| --- | --- | --- | --- |
| 8.05 | 34 nM |  | Cc1cc(-c2ccc(C(=O)C3CCCCC3C(=O)Nc3cnn4c3C(=O)NCC4)c(F)c2)[nH]n1 (single isomer, unassigned) [Example 39, (1R,2R or 1S,2S)-2-[2-Fluoro-4-(3-methyl-1H-pyrazol-5-yl)benzoyl]-N-(4-oxo-4,5,6,7-tetrahydropyrazolo[1,5-a]pyrazin-3-yl)cyclohexanecarboxamide] |
| 7.24 | 380 nM |  | Cc1cc(-c2ccc(C(=O)[C@@H]3CCCC[C@H]3C(=O)Nc3cn[nH]c3)cc2)[nH]n1 [Example 6, (1R,2R)-2-[4-(3-Methyl-1H-pyrazol-5-yl)benzoyl]-N-(1H-pyrazol-4-yl)cyclohexanecarboxamide] |
| 7.35 | 35 nM |  | Cn1ncc(NC(=O)[C@@H]2CCCC[C@H]2C(=O)c2ccc(-c3ccn[nH]3)cc2)c1S(C)(=O)=O [Example 8, (1R,2R)—N-[1-Methyl-5-(methylsulfonyl)-1H-pyrazol-4-yl]-2-[4-(1H-pyrazol-5-yl)benzoyl]cyclohexanecarboxamide] |
| 7.70 | 18 nM |  | CN1CCn2ncc(NC(=O)[C@@H]3CCCC[C@H]3C(=O)c3ccc(-c4cc[nH]n4)cc3)c2C1=O [Example 17, (1R,2R)—N-(5-Methyl-4-oxo-4,5,6,7-tetrahydropyrazolo[1,5-a]pyrazin-3-yl)-2-[4-(1H-pyrazol-3-yl)benzoyl]cyclohexanecarboxamide] |
| 7.92 | 50 nM |  | O=C(Nc1cn[nH]c1C(F)F)[C@@H]1CCCC[C@H]1C(=O)c1ccc(-c2cc[nH]n2)cc1 [Example 30, (1R,2R)—N-[5-(Difluoromethyl)-1H-pyrazol-4-yl]-2-[4-(1H-pyrazol-3-yl)benzoyl]cyclohexanecarboxamide] |
| 7.46 | 130 nM |  | NC(=O)c1[nH]ncc1NC(=O)[C@@H]1CCCC[C@H]1C(=O)c1ccc(-c2ccn[nH]2)cc1 [Example 23, 4-[({(1R,2R)-2-[4-(1H-Pyrazol-5-yl)benzoyl]cyclohexyl}carbonyl)amino]-1H-pyrazole-5-carboxamide] |
| 6.77 | 915 nM |  | Cc1cc(-c2ccc(C(=O)C3CCCCC3C(=O)Nc3cnn(C)c3C(N)=O)c(Cl)c2)[nH]n1 (racemic) [Example 32, 4-[({(1R,2R and 1S,2S)-2-[2-Chloro-4-(3-methyl-1H-pyrazol-5-yl)benzoyl]cyclohexyl}carbonyl)amino]-1-methyl-1H-pyrazole-5-carboxamide] |
|  | 110 nM |  | Cn1cc(NC(=O)[C@@H]2CCCC[C@H]2C(=O)c2ccc(-c3ccn[nH]3)cc2)c(OC(F)F)n1 [Example 9, (1R,2R)—N-[3-(Difluoromethoxy)-1-methyl-1H-pyrazol-4-yl]-2-[4-(1H-pyrazol-5-yl)benzoyl]cyclohexanecarboxamide] |
|  | 95 nM |  | Cc1cc(-c2ccc(C(=O)C3CCCCC3C(=O)Nc3cn(C)nc3C#N)cc2)[nH]n1 (single isomer, unassigned) [Example 5b, (1R,2R or 1S,2S)—N-(3-Cyano-1-methyl-1H-pyrazol-4-yl)-2-[4-(3-methyl-1H-pyrazol-5-yl)benzoyl]cyclohexanecarboxamide] |
| 7.70 | 69 nM |  | Cc1cc(-c2ccc(C(=O)C3CCCCC3C(=O)Nc3cn[nH]c3C(N)=O)c(F)c2)[nH]n1 (single isomer, unassigned) [Example 38, 4-[({(1R,2R or 1S,2S)-2-[2-Fluoro-4-(3-methyl-1H-pyrazol-5-yl)benzoyl]cyclohexyl}carbonyl)amino]-1H-pyrazole-5-carboxamide] |
| 8.20 | 40 nM |  | Cc1cc(-c2ccc(C(=O)[C@@H]3CCCC[C@H]3C(=O)Nc3cnn4c3C(=O)NCC4)cc2)[nH]n1 [Example 7, (1R,2R)-2-[4-(3-Methyl-1H-pyrazol-5-yl)benzoyl]-N-(4-oxo-4,5,6,7-tetrahydropyrazolo[1,5-a]pyrazin-3-yl)cyclohexanecarboxamide] |
| 7.55 | 114 nM |  | Cn1ncc(NC(=O)C2CCCCC2C(=O)c2ccc(-c3cc[nH]n3)cc2)c1C#N (single isomer, unassigned) [Example 18b, (1S,2S or 1R,2R)—N-(5-Cyano-1-methyl-1H-pyrazol-4-yl)-2-[4-(1H-pyrazol-3-yl)benzoyl]cyclohexanecarboxamide] |
|  |  | 281 nM | CNC(=O)c1nn(C)cc1NC(=O)C1CCCCC1C(=O)c1ccc(-c2cc[nH]n2)cc1 [Example 20, N,1-Dimethyl-4-[({(1R,2R and 1S,2S)-2-[4-(1H-pyrazol-3-yl)benzoyl]-cyclohexyl}carbonyl)amino]-1H-pyrazole-3-carboxamide] |
| 7.54 | 80 nM |  | CCn1ncc(NC(=O)[C@@H]2CCCC[C@H]2C(=O)c2ccc(-c3cc(C)n[nH]3)cc2)c1C(N)=O [Example 19, 1-Ethyl-4-[({(1R,2R)-2-[4-(3-methyl-1H-pyrazol-5-yl)benzoyl]-cyclohexyl}carbonyl)amino]-1H-pyrazole-5-carboxamide] |
|  | 290 nM |  | Cc1cc(-c2ccc(C(=O)[C@@H]3CCCC[C@H]3C(=O)Nc3cn(C)nc3C(N)=O)cc2)n[nH]1 [Example 4, 1-Methyl-4-[({(1R,2R)-2-[4-(3-methyl-1H-pyrazol-5-yl)benzoyl]-cyclohexyl}carbonyl)amino]-1H-pyrazole-3-carboxamide] |
| 5.43 |  |  | Cn1ncc(NC(=O)C2CCCCC2C(=O)c2ccc(-c3cc[nH]n3)cc2)c1C#N (single isomer, unassigned) [Example 18a, (1R,2R or 1S,2S)—N-(5-Cyano-1-methyl-1H-pyrazol-4-yl)-2-[4-(1H-pyrazol-3-yl)benzoyl]cyclohexanecarboxamide] |
| 6.68 |  |  | Cc1coc(NC(=O)C2CCCCC2C(=O)c2ccc(-c3ccn[nH]3)cc2)n1 (racemic) [Example 45, (1R,2R and 1S,2S)—N-(4-Methyl-1,3-oxazol-2-yl)-2-[4-(1H-pyrazol-5-yl)benzoyl]cyclohexanecarboxamide] |
|  | 70 nM |  | Cc1cc(-c2ccc(C(=O)[C@@H]3CCCC[C@H]3C(=O)Nc3cnn(C)c3C(N)=O)cc2)[nH]n1 [Example 3, 1-Methyl-4-[({(1R,2R)-2-[4-(3-methyl-1H-pyrazol-5-yl)benzoyl]cyclohexyl}-carbonyl)amino]-1H-pyrazole-5-carboxamide] |
|  | 260 nM |  | Cc1cc(-c2ccc(C(=O)[C@@H]3CCCC[C@H]3C(=O)Nc3cnn(C)c3S(N)(=O)=O)cc2)[nH]n1 [Example 13, (1R,2R)-2-[4-(3-Methyl-1H-pyrazol-5-yl)benzoyl]-N-(1-methyl-5-sulfamoyl-1H-pyrazol-4-yl)cyclohexanecarboxamide] |
|  | 117 nM |  | Cn1nnc(NC(=O)C2CCCCC2C(=O)c2ccc(-c3ccn[nH]3)cc2)c1C1CC1 [Example 33, (1R,2R and 1S,2S)—N-(5-Cyclopropyl-1-methyl-1H-1,2,3-triazol-4-yl)-2-[4-(1H-pyrazol-5-yl)benzoyl]cyclohexanecarboxamide] |
|  | 148 nM |  | Cc1cc(-c2ccc(C(=O)C3CCCCC3C(=O)Nc3cn(C)nc3C(N)=O)c(F)c2)[nH]n1 (single isomer, unassigned) [Example 36, 4-[({(1R,2R or 1S,2S)-2-[2-Fluoro-4-(3-methyl-1H-pyrazol-5-yl)benzoyl]-cyclohexyl}carbonyl)amino]-1-methyl-1H-pyrazole-3-carboxamide] |

From patent US10183947B2, “Pyrazole derivatives useful as 5-lipoxygenase activating protein (FLAP) inhibitors” (ASTRAZENECA AB, priority 2015, dated 2019)
